Several values for one entry are separate records, joined by “and”; a condition that tells them apart may be missing. Equal values may be shown once.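 1) Cells in 96-well plates. 2) Compound, 48 h, 5 concentrations. 3) Linear interpolation between surrounding doses. 4) Unreached endpoint = highest concentration. Abbreviation: GI50, concentration required for 50% inhibition of growth. TGI denotes the concentration required for complete inhibition of growth.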
Tests used:
Experiment in all cases: NCI-60 cell line screen, 48 h
A498 renal = system: A498 renal
ACHN renal = system: ACHN renal
EKVX NSCLC = system: EKVX NSCLC
HCC-2998 colon = system: HCC-2998 colon
HL-60(TB) leukemia = system: HL-60(TB) leukemia
HOP-62 NSCLC = system: HOP-62 NSCLC
HS 578T breast = system: HS 578T breast
SW-620 colon = system: SW-620 colon
UACC-257 melanoma = system: UACC-257 melanoma
UACC-62 melanoma = system: UACC-62 melanoma

Row | SMILES | GI50 (A498 renal) | TGI (A498 renal) | GI50 (ACHN renal) | TGI (ACHN renal) | GI50 (EKVX NSCLC) | TGI (EKVX NSCLC) | GI50 (HCC-2998 colon) | TGI (HCC-2998 colon) | GI50 (HL-60(TB) leukemia) | TGI (HL-60(TB) leukemia) [µM] | GI50 (HOP-62 NSCLC) | TGI (HOP-62 NSCLC) | GI50 (HS 578T breast) | TGI (HS 578T breast) [µM] | GI50 (SW-620 colon) | TGI (SW-620 colon) | GI50 (UACC-257 melanoma) | TGI (UACC-257 melanoma) | GI50 (UACC-62 melanoma) | TGI (UACC-62 melanoma)
1 | NCCCCCCCCCCCn1c2c(c3ccccc3c1=O)C(=O)c1ccccc1-2 | 12.4 µM | 36.3 µM | 3.11 µM | 8.11 µM | 22.5 µM | 45.7 µM | 2.76 µM | 9.72 µM | 6.28 µM | 20.4 | 2.19 µM | 4.83 µM | 22.4 µM | 52.6 | 1.96 µM | 3.76 µM | 27.7 µM | 63.7 µM | 16.9 µM | 35 µM
2 | CC1SC2(CCC(c3ccccc3)CC2)N(NC(=O)c2[nH]c3ccc(F)cc3c2-c2ccccc2)C1=O (stereo unspecified) | 13 µM | 28.2 µM | 3.4 µM | 14.9 µM | 12.4 µM | 54.2 µM | 2.51 µM | 7.05 µM | 1.31 µM | 4.53 | 4.59 µM | 23.5 µM | 12 µM | 68.3 | 6.57 µM | > 100 µM | 19 µM | 53.9 µM | 6.21 µM | 27.4 µM
3 | O=C1C(Nc2ccc(Br)cc2)=C(I)C(=O)c2ncccc21 | 1.69 µM | 8.82 µM | 0.738 µM | 1.56 µM | 3.08 µM | 9.52 µM | 3.22 µM | 10.4 µM | 0.96 µM | 2.07 | 2.31 µM | 8.31 µM | 1.59 µM | 26 | 0.531 µM | 1.51 µM | 0.835 µM | 1.95 µM | 1.16 µM | 2.96 µM
4 | O=c1c2c(c3ccccc3n1-c1ccccc1)NC(=S)NC2c1ccc(Cl)cc1 (stereo unspecified) | 2.92 µM | 12.5 µM | 3.92 µM | > 100 µM | 2.91 µM | 94.4 µM | 2.2 µM | 16.3 µM | 3.6 µM | 45 | 4.83 µM | 56.3 µM | 1.85 µM | > 100 | 6.97 µM | 49.9 µM | 5.9 µM | > 100 µM | 1.49 µM | 10.6 µM
5 | O=C1CCCCC=C1C[N+](=O)[O-] | > 100 µM | > 100 µM | 15.6 µM | 31.2 µM | 34.5 µM | > 100 µM | 20.5 µM | 43.6 µM | 14 µM | > 100 | 15.1 µM | 45.6 µM | 41.8 µM | > 100 | 5.9 µM | 26.1 µM | 28.6 µM | > 100 µM | 18.7 µM | 34.6 µM
6 | c1ccc(Nc2nc(-c3ccccn3)cs2)nc1 | 0.266 µM | 13.5 µM | 0.341 µM | > 100 µM | 0.507 µM | > 56.9 µM | 0.516 µM | 24.7 µM | 0.392 µM | 3.01 | 0.619 µM | > 100 µM | 2.91 µM | > 100 | 0.61 µM | 19.9 µM | 0.496 µM | 15.4 µM | 0.48 µM | > 43 µM
7 | COc1cc2nc(-c3ccc(Cl)cc3)cc(OCCCN3CCCC3)c2cc1OC | 2.19 µM | 5.19 µM | 1.93 µM | 8.39 µM | 1.21 µM | 12 µM | 1.86 µM | 6.01 µM | 2.72 µM | 8.33 | 1.38 µM | 10.6 µM | 1.89 µM | 6.68 | 3.12 µM | 13.1 µM | 1.96 µM | 4.87 µM | 2.03 µM | 4.57 µM
8 | O=C(c1ccco1)c1c(C(F)(F)F)nc2ccc(C(F)(F)F)cc2[n+]1[O-] | 42.4 µM | > 79.7 µM | 23.4 µM | 60 µM | 19.9 µM | > 69.6 µM | 57.6 µM | > 100 µM | > 100 µM | > 100 | 19.8 µM | 46.3 µM | 21.2 µM | 54.5 | > 59.1 µM | > 100 µM | > 52.6 µM | > 85.9 µM | 44.2 µM | > 100 µM
9 | Clc1cc2c(nn1)Nc1ccccc1S2 | > 100 µM | > 100 µM | > 100 µM | > 100 µM | 35.6 µM | > 100 µM | > 100 µM | > 100 µM | > 100 µM | > 100 | > 100 µM | > 100 µM | 38.4 µM | > 100 | > 100 µM | > 100 µM | > 100 µM | > 100 µM | > 100 µM | > 100 µM
10 | Cc1cccc2nc3cccc(C(=O)NCCNCCNCCNC(=O)c4cccc5nc6cccc(C)c6nc45)c3nc12 | < 0.01 µM | 0.363 µM | < 0.01 µM | 10.9 µM | 0.291 µM | 16.3 µM | 0.0416 µM | 0.837 µM | < 0.0139 µM | 1.12 | < 0.01 µM | 1.19 µM | 0.0474 µM | 2.24 | < 0.01 µM | 3.5 µM | 0.0557 µM | 1.76 µM | 0.0137 µM | 2.01 µM
11 | CSCC[C@H](NC(=O)[C@H](CC(C)C)NC(=O)[C@@H](Cc1ccccc1)NC(=O)CNC(=O)[C@@H](NC(=O)[C@H](C)NC(=O)[C@H](Cc1c[nH]c2ccccc12)NC(=O)[C@H](CCC(N)=O)NC(=O)[C@H](N)CC(N)=O)C(C)C)C(N)=O |  | > 12.5 µM |  | > 12.5 µM |  | > 12.5 µM |  | > 12.5 µM |  | > 12.5 |  | > 12.5 µM |  | > 12.5 |  | > 12.5 µM |  | > 12.5 µM |  | > 12.5 µM
12 | N#Cc1ccsc1NC(=O)COC(=O)c1cccc(S(=O)(=O)N2CCc3ccccc32)c1 | > 100 µM | > 100 µM | 50.5 µM | > 100 µM | 68.3 µM | > 100 µM | 39.2 µM | > 100 µM | 37.9 µM | > 100 | 22 µM | > 100 µM | > 100 µM | > 100 | 24.1 µM | > 100 µM | 28.9 µM | > 100 µM | 32 µM | > 100 µM
13 | CC(C)(CCN=C(N)Nc1ccccn1)c1ccc(C(F)(F)F)cc1 | 14.9 µM | 28.8 µM | 13.5 µM | 26.5 µM | 11.2 µM | 30.5 µM | 15.1 µM | 29.6 µM | 17.1 µM | 36 | 15.7 µM | 30.2 µM | 18.1 µM | 39.3 | 16.1 µM | 34 µM | 18 µM | 32.8 µM | 15.7 µM | 29.8 µM
14 | Cn1c2ccccc2c(=O)c2c(O)cc3c(c21)CC(C1(C)CO1)O3 (stereo unspecified) |  | 33.9 µM |  | 5.73 µM |  | 14 µM |  | 5.4 µM |  | 2.32 |  | 11.3 µM |  | 5.31 |  | 3.38 µM |  | 13.1 µM |  | 4.9 µM
15 | Cc1cc2nc3ccc(=[N+](C)C)cc-3sc2cc1N | 1.33 µM and 1.93 µM | 14.2 µM and 47.2 µM and 12 µM | 0.844 µM and 1.1 µM |  | 2.12 µM and 1.72 µM | 9.09 µM and 17.2 µM and 8.02 µM | 1.2 µM and 2.12 µM | 7.36 µM and 12.2 µM and 10.9 µM | 0.214 µM and 0.181 µM |  | 1.04 µM and 1.55 µM | 3.2 µM and 28.9 µM and 5.72 µM | 1.49 µM and 0.311 µM |  | 0.289 µM and 1.13 µM | 1.24 µM and 9.68 µM and 3.05 µM | 0.501 µM and 1.95 µM | 3.78 µM and 5.85 µM and 10.1 µM | 0.541 µM and 1.07 µM | 2.21 µM and 5.49 µM and 4.52 µM
16 | C=C1COC(O)(C2OCOC(C3CC(=O)NC(=O)C3)C2O)C1C (stereo unspecified) |  | 0.0052 µM and 0.00554 µM | 0.00352 µM | 0.198 µM and 0.0355 µM | 0.00507 µM | 0.04 µM and 0.266 µM | 0.00218 µM | 0.0174 µM and 0.0244 µM | 0.00217 µM | 0.0123 | 0.00277 µM | 0.0357 µM and 0.0382 µM | 0.00428 µM | 0.0265 | 0.00288 µM | 0.042 µM and 0.142 µM | 0.004 µM and 0.0126 µM | 0.0278 µM and 0.0453 µM | 0.00275 µM and 0.0134 µM | 0.0247 µM and 0.131 µM
17 | CN(C)CCC=C1c2ccccc2C(C)(C)c2ccccc21 | 12.9 µM | 26 µM | 14.7 µM | 27.9 µM | 14.4 µM | 30 µM | 4.25 µM | 15 µM | 12.4 µM | 27.1 | 17.4 µM | 33.5 µM | 9.03 µM | 29.8 | 13.3 µM | 26.2 µM | 2.42 µM | 6.34 µM | 11.6 µM | 27 µM
18 | CN1CC[C@]2(c3cccc(O)c3)CC(=O)/C(=C/c3ccccc3)[C@H]1C2 |  | 21.1 µM |  | 7.03 µM | 3.57 µM | 13.9 µM | 3.11 µM | 9.99 µM |  | 5.45 | 3.21 µM | 10.8 µM |  | 12.1 |  | 11.9 µM | 2.6 µM | 9.72 µM | 3.06 µM | 12.7 µM
19 | CCCCCCCCCCCCCCCC(=O)N[C@H](/C=C/[C@H](O)CCCCCCCCCCCCC)CO | > 100 µM | > 100 µM | > 100 µM | > 100 µM | > 100 µM | > 100 µM | > 100 µM | > 100 µM | > 100 µM | > 100 | > 100 µM | > 100 µM | > 100 µM | > 100 | > 100 µM | > 100 µM | > 100 µM | > 100 µM | > 100 µM | > 100 µM

Source: PubChem BioAssay (NCI)
